# Test results: article PMC6214004, “Novel C15 Triene Triazole, D-A Derivatives Anti-HepG2, and as HDAC2 Inhibitors: A Synergy Study” (International Journal of Molecular Sciences, 2018)
# Read-outs that look alike come from different tables or passages of the source.
# What was measured:
# [1] = system: HepG2 (human hepatocellular carcinoma); test: MTT assay, inhibition of HepG2 cell proliferation; type: cell-based
# Procedure: Preliminary in vitro screening results of the title compounds for antitumor activity against HepG2 (human hepatocellular carcinoma) and human normal hepatocytes (LO2) were determined by MTT assay (thiazolyl blue salt colorimetry) (see Figure 1 and Figure 2). […]
# All analyses were carried out with SPSS 19.0 software (SPSS, Chicago, IL, USA). […]
# The measurement data material of the experimental were described by x±s. Two samples were compared with the t test. The difference was significant statistically (p < 0.05).
# MTT assay detect cell proliferation
# MTT assay was used to determine the inhibitory effect on the proliferation of HepG2 cells of levopimaric acid. Compound 4 and levopimaric acid were combined with three groups below. The cells in the logarithmic growth phase were inoculated into 96-well culture plates at 3.5×10^3 cells/well, 0.2 ml per well, and incubated for 72 h with different concentrations of levopimaric acid. Then, we continually cultured it for 4 h after mixing fresh MTT working solution 20 μL (final concentration was 0.5 mg/mL), and carefully discarded the supernatant, added […] of DMSO per well and shook up. The absorbance (A) at the wavelength of 490 nm was measured by a microplate reader. The cell proliferation inhibition rate was calculated according to the following formula=[(negative control group A value - blank group A value) - (experimental group A value - blank group A value)]/ (Negative control group A value - blank group A value) × 100%.
# Table S1 Compound 4 and levopimaric acid anti-HepG2 by single drug.
# Concentration 4 Concentration Levopimaric acid
# /μM Inhibitory rate/% Inhibitory rate/% /μM […]
# Detection of cell proliferation by MTT
# MTT assay was used to determine the inhibitory effect of the sample on the proliferation of HepG2 cells. The tumor cells of logarithmic growth stage were inoculated with 3.5×10^3/well in 96 well culture plate. 0.2 ml/pore system was cultured for 72 h with different concentrations of samples. Then 20 μL (final concentration 0.5 mg/mL) of MTT were added to each pore for 4 h. The supernatant was carefully adsorbed, and 0.15 mL DMSO was added to each pore, and oscillatory mixing was carried out. The absorbance (A) value at 490 nm wavelength was measured by enzyme labeling instrument.
# The inhibition rate of cell proliferation was calculated as follows: [(A value of negative control group - A value of blank group) - (A value of experimental group A value of blank group)]/(negative pair […]
# (§1) Firstly, sucked out the original medium when the cell coverage in the culture bottle had reached 80% ~ 90%. Secondly, added appropriate trypsin (0.25%) to digest the cells for 1~2 min until they became round. Mixed the equal volume of serum-containing medium to terminate the digestion.
# Thirdly, use pipette to percuss cells and make them suspend. Then, sucked the cells into a 15 mL centrifuge tube and centrifuge them for 5 min. At last, dropped the supernatant, add 1~2 mL medium to suspend the cells, and cultivated them in the culture bottle.
# The first step was to add suitable trypsin digestion cells and collected the cell suspension.
# Centrifuged the suspension at 1000 rpm for 5 min in the tube, and then abandoned the supernatant.
# Secondly, added cryoprotectant to the cell sediment and mixed them lightly until the cell density was 1×106~1×10^7/ml. Later, divided them into 1~1.5 ml per tube, tightened the cap and made a mark on surface including the cell code and the freezing date. In the end, cooled the cells in following order: room temperature→ 4℃ (20 min) → the freezer (30 min) → low temperature refrigerator (-30℃ for 1 h) →gaseous nitrogen (30 min) →the liquid nitrogen.
# (§2) Cell proliferation measured by MTT
# First of all, digested the cells and counted them. Added 100 μL cell suspension (3×10^4 /ml) into each hole of the 96 holes cell culture plate. Secondly, placed the 96 holes cell culture plate in a 5% CO2 culture box for 24 h at 37℃. Then, used the medium to dilute the drug into the desired working fluid […]
# [2] = system: human normal hepatocytes (LO2); test: MTT assay, inhibition (toxicity) of LO2 cell proliferation; type: cell-based; settings: Hepatocyte, 72 h, read-out: inhibitory activity against LO2, IC50
# Procedure: Preliminary in vitro screening results of the title compounds for antitumor activity against HepG2 (human hepatocellular carcinoma) and human normal hepatocytes (LO2) were determined by MTT assay (thiazolyl blue salt colorimetry) (see Figure 1 and Figure 2).
# as §1
# Thirdly, use pipette to percuss cells and make them suspend. Then, sucked the cells into a 15 mL centrifuge tube and centrifuge them for 5 min. At last, dropped the supernatant, add 1~2 mL medium to suspend the cells, and cultivated them in the culture bottle. […]
# as §2
# First of all, digested the cells and counted them. Added 100 μL cell suspension (3×10^4 /ml) into each hole of the 96 holes cell culture plate. Secondly, placed the 96 holes cell culture plate in a 5% CO2 culture box for 24 h at 37℃. Then, used the medium to dilute the drug into the desired working fluid concentration, added 100 μL per hole to the corresponding drug medium, and established a negative control group as well as a positive control group (paclitaxel, 20 ug/ml). Next, placed 96 holes cell culture plate at 37℃ and cultivated the cells in a 5% CO2 incubator for 72 h. After treating 96 holes board with MTT staining, estimated the OD value: a. Added 20 μL MTT (5 mg/ml) per hole, and cultivated cells in the box for 4 h. b. Discarded the supernatant, added 150 μL DMSO in each hole, and mixed them gently after treatment with shaker for 10 min. c. Under 490nm ultraviolet wavelength, read the OD value from ELISA.
# Finally, figured up the inhibition rate of each group
# *The inhibition rate (%) = (negative control group OD value - experimental group OD value) / negative control group OD value ×100%. […]
# The next day, joined the corresponding drug-containing medium after the cells adhered. And established the negative control group at the same time. After 72 h, use 0.25% pancreatin (not contain EDTA) to digest the cells. Thirdly, applied PBS to scrub the cells (centrifuge them at 2000 rpm for 5min), and collected 5×10^5 cells. Then, used a volume fraction of 70% ethanol to fix the single cell suspension for 2 h (or overnight), and stored it at 4℃. Before washing, employed PBS to remove the fixative solution (if needed, filter cell suspension through 200 mesh). Added […] RNase A, and made it in water bath at 37℃ for 30 min. Later, placed it at 4℃ for 30 min without light. […]
# Detection of apoptosis by Annexin-V FITC/PI double staining
# Firstly, inoculated the logarithmic growth cells into the six-hole plate. […]
# LO2 = system: LO2; parameters: method as in earlier work; settings: LO2, 24 h; cited from earlier work
# [3] = Homo sapiens, HepG2, 72 h, 72 h, MTT, read-out: inhibitory activity against HepG2, IC50
compound,measurement,setting,value
"C/C=C\C=C\C/C=C\CCCCCCCc1cccc(O)c1O [Compound 1, triene urushiol]",IC50,"[1]; Homo sapiens, HepG2, 72 h, read-out: inhibitory activity against HepG2, IC50, 72 h, MTT",< 50 µM
same,IC50,"[1]; read-out: inhibitory activity against HepG2, IC50, 72 h, MTT",28.6 µM
same,IC50,[2],66.1 µM
"CC(C)C1=CC[C@H]2C(=C1)CC[C@@H]1[C@]2(C)CCC[C@@]1(C)C(=O)O [Compound 5, Levopimaric Acid]",IC50,[1]; [3],39.5 µM
same,inhibition at 0.585 µM,"[1]; Homo sapiens, HepG2, 0.585 μM, 72 h, read-out: Inhibitory rate/%, anti-HepG2 by single drug",4.12%
same,inhibition at 1.171 µM,"[1]; Homo sapiens, HepG2, 1.171 μM, 72 h, read-out: Inhibitory rate/%, anti-HepG2 by single drug",5.45%
same,inhibition at 2.343 µM,"[1]; Homo sapiens, HepG2, 2.343 μM, 72 h, read-out: Inhibitory rate/%, anti-HepG2 by single drug",9.45%
same,inhibition at 4.687 µM,"[1]; Homo sapiens, HepG2, 4.687 μM, 72 h, read-out: Inhibitory rate/%, anti-HepG2 by single drug",13.8%
same,inhibition at 9.375 µM,"[1]; Homo sapiens, HepG2, 9.375 μM, 72 h, read-out: Inhibitory rate/%, anti-HepG2 by single drug",32.1%
same,inhibition at 18.75 µM,"[1]; Homo sapiens, HepG2, 18.75 μM, 72 h, read-out: Inhibitory rate/%, anti-HepG2 by single drug",44.6%
same,inhibition at 37.5 µM,"[1]; Homo sapiens, HepG2, 37.5 μM, 72 h, read-out: Inhibitory rate/%, anti-HepG2 by single drug",47.2%
same,inhibition at 75 µM,"[1]; Homo sapiens, HepG2, 75 μM, 72 h, read-out: Inhibitory rate/%, anti-HepG2 by single drug",73.4%
same,inhibition at 150 µM,"[1]; Homo sapiens, HepG2, 150 μM, 72 h, read-out: Inhibitory rate/%, anti-HepG2 by single drug",91.5%
same,IC50,[2],> 200 µM
CC1C=CC(C/C=C\CCCCCCCc2cccc(O)c2O)C2(F)C(=O)OC(=O)C12F (stereo not shown) [Compound 15],IC50,[1]; [3],29.4 µM
same,IC50,[2],> 200 µM
CC1C=CC(C/C=C\CCCCCCCc2cccc(O)c2O)C2(Cl)C(=O)OC(=O)C12Cl (stereo not shown) [Compound 16],IC50,"[1]; Homo sapiens, HepG2, 72 h, MTT, read-out: inhibitory activity against HepG2, IC50",23.9 µM
same,IC50,[2],> 200 µM
CC(=O)O[C@H]1C(=O)[C@@]2(C)[C@H]([C@H](OC(=O)c3ccccc3)[C@]3(O)C[C@H](OC(=O)[C@H](O)[C@@H](NC(=O)c4ccccc4)c4ccccc4)C(C)=C1C3(C)C)[C@]1(OC(C)=O)CO[C@@H]1C[C@@H]2O [paclitaxel],IC50 on LO2,LO2,28.5 µg/mL
